Assay results from the NIST ThermoML archive (doi:10.1016/j.jct.2012.01.025).

Tests used:
[1] = for vapor or sublimation pressure: Closed cell (Static) method
[2] = Molar enthalpy of transition or fusion; conditions: Crystal; DSC
[3] = molar enthalpy of vaporization or sublimation; conditions: 298.15 K; Crystal; Drop calorimetry

c1ccc2c(c1)-c1cccc3cccc-2c13 [fluoranthene]
[1]
Conditions	Normal melting temperature [°C]	vapor or sublimation pressure [kPa]
348.83 K, Crystal	–	0.00042
351.82 K, Crystal	–	0.00056
354.78 K, Liquid	–	0.00117
354.79 K, Crystal	–	0.00076
356.76 K, Liquid	–	0.00137
357.77 K, Crystal	–	0.00101
360.71 K, Liquid	–	0.00185
360.73 K, Crystal	–	0.0013
363.72 K, Crystal	–	0.00171
366.68 K, Crystal	–	0.00225
366.68 K, Liquid	–	0.0029
368.53 K, Liquid	–	0.0033
369.65 K, Crystal	–	0.00292
370.63 K, Liquid	–	0.00384
372.57 K, Liquid	–	0.00438
372.62 K, Crystal	–	0.00379
374.61 K, Liquid	–	0.00509
375.59 K, Crystal	–	0.00491
378.57 K, Liquid	–	0.0067
382.51 K, Liquid	–	0.00865
384.49 K, Liquid	–	0.00979
386.46 K, Liquid	–	0.01118
388.46 K, Liquid	–	0.01265
390.43 K, Liquid	–	0.01425
392.43 K, Liquid	–	0.0161
394.39 K, Liquid	–	0.0181
396.38 K, Liquid	–	0.02041
398.36 K, Liquid	–	0.02287
400.35 K, Liquid	–	0.02578
402.34 K, Liquid	–	0.02887
404.3 K, Liquid	–	0.03224
Crystal, DTA	109.69	–

Conditions	Molar enthalpy of transition or fusion [kcal/mol]	molar enthalpy [kcal/mol]
[2]	4.63	–
[3]	–	23
